Reference: patent publication US20260258084A1, “New Peptides as Selective IL-23 Receptor Antagonists” (Sanofi, priority 2022, published 2026)
≈ marks a conversion by molar mass, not a printed value. Read-outs that look alike come from different tables or passages of the source. Starred links: 1 amine or outer side, 2 acyl side, 3 side chain; linkers in the order of their positions; H or OH if unused. Positions of bridges follow the written chain, without caps; N, C: chain ends. Non-standard residues stand in square brackets, D forms with d. Residues, ends and D or L forms follow the SMILES beside them. *: point of attachment. X6 = O=C(CCC(=O)[*:3])N[C@@H](CS[*:2])C(=O)[*:1]; X7 = O=C(CCC(=O)[*:3])N[C@@H](CC[*:2])C(=O)[*:1]; Trp(7-Me) = Cc1cccc2c(C[C@H](N)C(=O)O)c[nH]c12; αMeLys(Me2) = CN(C)CCCC[C@](C)(N)C(=O)O; 2Nal = N[C@@H](Cc1ccc2ccccc2c1)C(=O)O; d2Nal = N[C@H](Cc1ccc2ccccc2c1)C(=O)O; NMe5Ava = CN(CCCCC(=O)[*:2])[*:1]; Palmitoyl = CCCCCCCCCCCCCCCC(=O)*; 3Pal = N[C@@H](Cc1cccnc1)C(=O)O; αMeL = CC(C)C[C@](C)(N)C(=O)O; Pen = CC(C)(S)[C@H](N)C(=O)O; Suc = O=C(CCC(=O)[*:2])[*:1]; αMeK = C[C@](N)(CCCCN)C(=O)O; Thp = NC1(C(=O)O)CCOCC1; Me2NCH2CH2 = CN(C)CC*; Aib = CC(C)(N)C(=O)O; Ahx = NCCCCCC(=O)O; Ava = NCCCCC(=O)O; Sar = CNCC(=O)O

Legend:
[1] = molecular target: T1, human interleukin-23 receptor (recombinant human IL-23R-Fc chimera) (Homo sapiens, UniProt Q5VWK5); experiment: Human ELISA IL23/IL23R (assay for specific human IL23R antagonists); format: binding
T1 construct: Fc (IgG Fc fusion)
Method: Antagonism of compounds for human interleukin-23 receptor antagonists, was determined by an ELISA assay.
A 384-well plate was coated with 50 μl/well of human IL23 at a final concentration of […] and incubated overnight at 4° C. The wells were washed 3 times with 80 μl wash buffer and blocked with 80 μl blocking buffer for 60 minutes at room temperature and washed again. 20 μl of serially diluted test peptides was added to each well and subsequently 20 μl of recombinant human IL-23R-Fc chimera at final concentration of 0.1 μg/ml. The plate was incubated for 60 minutes at room temperature. After the wells were washed, bound IL23R-Fc was detected with goat anti-hu-IgG1-HRP antibody. Signals were visualized with QuantaBlu Fluorogenic Peroxidase Substrate.

[2] = tested on: IL-23 induced STAT3 signaling in HEK-Blue™ IL-23 cells; experiment: IL-23 induced STAT3 signaling in HEK-Blue IL-23 cells (SEAP reporter); format: cell-based; settings: human IL23 0.25 ng/ml, read-out: pSTAT3
Description: HEK-Blue™ IL-23 cells (Invivogen) are designed for the detection of bioactive human (hIL-23) and murine IL-23 (mIL-23) by monitoring the activation of the STAT3 pathway. Binding of IL-23 to its receptor on the surface of HEK-Blue™ IL-23 cells triggers a signalling cascade leading to the activation of STAT3 and the subsequent production of secreted embryonic alkaline phosphatase (SEAP). This can be readily assessed using QUANTI-Blue™ Solution, a SEAP detection reagent.
HEK-Blue™ IL-23 cells were cultured as described by Invivogen.
On the first day of assay 10 μL of the HEK-Blue IL23 cell suspension (final concentration: 10,000 cells/well) and 10 μl of serially diluted peptides solutions were dispensed into a 384-well assay plate. After pre-incubation of the reaction mixtures at 37° C./5% CO2/95% humidity for 60 minutes, 10 μl of the human IL23 cytokine (final concentration: 0.25 ng/ml) was added to each well for the STAT3 signalling activation. The plate was incubated overnight at 37° C./5% CO2/95% humidity.
On the second day 20 μl per well of Quanti-Blue detection solution (prepared according to the manufacture instruction) was dispensed into a new 384-well plate and followed by the transfer of 5 μl supernatant of the overnight incubated cell/sample mixtures. After incubation of 45 min at room temperature signals were measured with PHERAstar (BMG) at OD 620-655 nm. Dose response data were fitted with XLfit.

[3] = Chemical stability assessment of peptides (relative purity loss); format: physicochemical; settings: 24 hours at 37° C.
Method: Purity of a peptide batch was determined through UPLC/MS (Methods B-G) prior to chemical stability measurement. The target concentration was 1 mg/ml pure compound. Solutions from solid samples were prepared in the following buffer systems with a concentration of 1 mg/ml compound based on the previously determined % purity: • Solubility buffer system A) 50 mM HCl pH 1.2+Acetonitrile (1:1) • Solubility buffer system B) 50 mM phosphate buffer pH 6.5+Acetonitrile (1:1) • Solubility buffer system C) 50 mM phosphate buffer pH 7.4+Acetonitrile (1:1)
Prepared solutions were stored for 24 hours at 2° C. and 37° C. After this time course, the samples were centrifuged for 15 min at 2500 RCF to create a 1:5 dilution of the supernatant. Then 2 μl of the dilution were analysed with UHPLC-UV.
The chemical stability was rated through the relative loss of purity calculated by the equation:
[(purity after 0 hours at 37° C.)−(purity after 24 hours at 37° C.)]/(purity after 0 hours at 37° C.)]*100%
The purity is calculated as [(peak area peptide)/(total peak area)]*100%.

[4] = Solubility testing of peptides at different pH; format: physicochemical; settings: target concentration 1 mg/ml, 2 hours agitation
Method: Prior to the solubility measurement of a synthesized peptide batch, its purity was determined through UPLC/MS (methods B-G).
For solubility testing the target concentration was 1 mg pure compound/ml. Therefore, solutions from solid samples were prepared in a buffer system at a concentration of 1 mg/mL compound. The solid samples were obtained by drying down aliquots of a dimethyl sulfoxide stock solution using a Thermo Speedvac vacuum centrifuge. The dry down time was 3 hours. • Solubility buffer system A) 50 mM HCl pH 1.2 • Solubility buffer system B) 50 mM phosphate buffer pH 6.5 • Solubility buffer system C) 50 mM phosphate buffer pH 7.4 • Solubility buffer system D) 50 mM phosphate buffer pH 9.0
UPLC-UV (Method A) was performed after 2 hours of gentle agitation from the filtered (0.45 μm filter plates) solutions, which was obtained by 10 mins of centrifugation forced filtration at 1500 RCF (relative centrifugal acceleration).
The solubility was determined by the comparison of the UV peak area of 2 μL-injections of a buffered sample diluted 1:5 with a standard curve of a dimethyl sulfoxide reference sample of the diluted in dimethyl sulfoxide with known concentration. The different extinction coefficients were taken into account for the calculation.

[5] = Table 10, read-out: Human ELISA IL23/IL23R IC50
[6] = Table 11, Pen peptide compounds, read-out: Elisa IC50 Pen

SMILES	IC50 [1, 5]	IC50 [2]	IC50 [1, 6]	further results
COc1ccc(C[C@@H]2NC(=O)[C@H]3NC(=O)[C@H](CCC(N)=O)NC(=O)[C@H](Cc4c[nH]c5ccccc45)NC(=O)CCCCNC(=O)[C@H](CCC(=O)O[C@@H]3C)NC(=O)CCCCCNC(=O)C[C@@H](C(=O)N[C@@H](CC(N)=O)C(=O)N[C@@H](CC(N)=O)C(N)=O)NC(=O)C(C)(C)NC(=O)[C@H](Cc3ccc4ccccc4c3)NC2=O)cc1 [compound 39] ([Ahx]E[Ava]WQTY(Me)[2Nal][Aib]DNN-NH2; ester 2-6; lactam N-10)	1.1 nM	26.4 nM		
COc1ccc(C[C@@H]2NC(=O)[C@@H]3CSSC(C)(C)[C@H](NC(=O)CCCCCNC(=O)C[C@@H](C(=O)N[C@@H](CC(N)=O)C(=O)N[C@@H](CC(N)=O)C(N)=O)NC(=O)C(C)(C)NC(=O)[C@H](Cc4ccc5ccccc5c4)NC2=O)C(=O)N[C@@H](CC(N)=O)C(=O)N[C@@H]([C@@H](C)O)C(=O)N[C@@H](Cc2c[nH]c4ccccc24)C(=O)N[C@@H](CCC(N)=O)C(=O)N3)cc1 [compound 164] ([Ahx][Pen]NTWQCY(Me)[2Nal][Aib]DNN-NH2; disulfide 2-7; lactam N-11)			23.1 nM	
CC(C)C[C@]1(C)NC(=O)[C@H](Cc2ccc3ccccc3c2)NC(=O)[C@H](Cc2ccc(OCCN(C)C)cc2)NC(=O)[C@@H]2CSSC[C@H](NC(=O)CCCCN(C)C(=O)CC[C@@H](C(=O)N[C@@H](CC(N)=O)C(=O)N[C@@H](CC(N)=O)C(N)=O)NC1=O)C(=O)N[C@@H](CC(N)=O)C(=O)N[C@@H]([C@@H](C)O)C(=O)N[C@@H](Cc1c[nH]c3ccccc13)C(=O)N[C@@H](CCC(N)=O)C(=O)N2 [compound 42] ([NMe5Ava]CNTWQCY(Me2NCH2CH2)[2Nal][αMeL]ENN-NH2; disulfide 2-7; lactam N-11)	0.32 nM	1.42 nM		
Cc1cccc2c(C[C@@H]3NC(=O)[C@H]([C@@H](C)O)NC(=O)[C@H](CC(N)=O)NC(=O)[C@@H]4CSSC[C@H](NC(=O)[C@H](CCC(N)=O)NC3=O)C(=O)N[C@@H](Cc3ccc(OCCN(C)C)cc3)C(=O)N[C@@H](Cc3ccc5ccccc5c3)C(=O)N[C@@](C)(CCCCN(C)C)C(=O)N[C@H](C(=O)N[C@@H](CC(N)=O)C(=O)N[C@@H](Cc3cccnc3)C(=O)N(C)CC(N)=O)CCCCNC(=O)CCC(=O)N4)c[nH]c12 [compound 153] (CNT[Trp(7-Me)]QCY(Me2NCH2CH2)[2Nal][αMeLys(Me2)]KN[3Pal][Sar]-NH2; disulfide 1-6; linker N-10 via Suc)	0.45 nM	0.06 nM		
COc1ccc(C[C@@H]2NC(=O)[C@H]3NC(=O)[C@H](CCC(N)=O)NC(=O)[C@H](Cc4c[nH]c5ccccc45)NC(=O)[C@H]([C@@H](C)O)NC(=O)[C@H](CC(N)=O)NC(=O)[C@@H](NC(=O)CCCCCNC(=O)CC[C@@H](C(=O)N[C@@H](CC(N)=O)C(=O)N[C@@H](CC(N)=O)C(N)=O)NC(=O)C(C)(C)NC(=O)[C@H](Cc4ccc5ccccc5c4)NC2=O)C(C)(C)SSC3(C)C)cc1 [compound 160] ([Ahx][Pen]NTWQ[Pen]Y(Me)[2Nal][Aib]ENN-NH2; disulfide 2-7; lactam N-11)			72.2 nM	
CC(=O)NCCCC[C@@H]1NC(=O)[C@H](Cc2c[nH]c3c(C)cccc23)NC(=O)[C@@H](NC(C)=O)CCCCNC(=O)[C@@H]2CCSC[C@H](NC1=O)C(=O)N[C@@H](Cc1ccc(OCCN(C)C)cc1)C(=O)N[C@H](Cc1ccc3ccccc3c1)C(=O)NC1(CCOCC1)C(=O)N[C@H](C(=O)N[C@@H](CC(N)=O)C(=O)N[C@@H](Cc1cccnc1)C(=O)N(C)CC(N)=O)CCCCNC(=O)CCC(=O)N2 [compound 122] (Ac-K[Trp(7-Me)]K(Ac)CY(Me2NCH2CH2)[d2Nal][Thp]KN[3Pal][Sar]-NH2; linker 1-4-8 via X7)	2.3 nM	0.37 nM		
CCCCCCCCCCCCCCCC(=O)NCCCC[C@]1(C)NC(=O)[C@H](Cc2ccc3ccccc3c2)NC(=O)[C@H](Cc2ccc(OCCN(C)C)cc2)NC(=O)[C@@H]2CSSC[C@H](NC(=O)CCC(=O)NCCCC[C@@H](C(=O)N[C@@H](CC(N)=O)C(=O)N[C@@H](Cc3cccnc3)C(=O)N(C)CC(N)=O)NC1=O)C(=O)NCCCC[C@H](NC(C)=O)C(=O)N[C@@H](Cc1c[nH]c3c(C)cccc13)C(=O)N[C@@H](CCCCNC(C)=O)C(=O)N2 [compound 101] (Ac-K[Trp(7-Me)]K(Ac)CY(Me2NCH2CH2)[2Nal][αMeK](Palmitoyl)KN[3Pal][Sar]-NH2; linker 1-4-8 via X6)	3.47 nM			Chemical stability (relative purity loss) Buffer pH 1.2 ([3]; 50 mM HCl pH 1.2 + acetonitrile (1:1)): 12.0%; Chemical stability (relative purity loss) Buffer pH 6.5 ([3]; 50 mM phosphate buffer pH 6.5 + acetonitrile (1:1)): 10.0%; Chemical stability (relative purity loss) Buffer pH 7.4 ([3]; 50 mM phosphate buffer pH 7.4 + acetonitrile (1:1)): 9.0%; solubility at 2 h ([4]; 50 mM HCl buffer, 50 mM HCl pH 1.2, read-out: Solubility Buffer pH 1.2): ≥ 1430 µg/mL; solubility at 2 h ([4]; 50 mM phosphate buffer pH 6.5, read-out: Solubility Buffer pH 6.5): 750 µg/mL (≈ 354 µM); solubility at 2 h ([4]; 50 mM phosphate buffer pH 7.4, read-out: Solubility Buffer pH 7.4): ≥ 870 µg/mL; solubility at 2 h ([4]; 50 mM phosphate buffer pH 9.0, read-out: Solubility Buffer pH 9.0): 810 µg/mL (≈ 382 µM)
COc1ccc(C[C@@H]2NC(=O)[C@H]3NC(=O)[C@H](CCC(N)=O)NC(=O)[C@H](Cc4c[nH]c5ccccc45)NC(=O)[C@H]([C@@H](C)O)NC(=O)[C@H](CC(N)=O)NC(=O)[C@@H](NC(=O)CCCCNC(=O)CC[C@@H](C(=O)N[C@@H](CC(N)=O)C(=O)N[C@@H](CC(N)=O)C(N)=O)NC(=O)C(C)(C)NC(=O)[C@H](Cc4ccc5ccccc5c4)NC2=O)C(C)(C)SSC3(C)C)cc1 [compound 159] ([Ava][Pen]NTWQ[Pen]Y(Me)[2Nal][Aib]ENN-NH2; disulfide 2-7; lactam N-11)			280 nM	
COc1ccc(C[C@@H]2NC(=O)[C@H]3NC(=O)[C@H](CCC(N)=O)NC(=O)[C@H](Cc4c[nH]c5ccccc45)NC(=O)[C@H]([C@@H](C)O)NC(=O)[C@H](CC(N)=O)NC(=O)[C@@H](NC(=O)CCCCCNC(=O)C[C@@H](C(=O)N[C@@H](CC(N)=O)C(=O)N[C@@H](CC(N)=O)C(N)=O)NC(=O)[C@](C)(CC(C)C)NC(=O)[C@H](Cc4ccc5ccccc5c4)NC2=O)C(C)(C)SSC3(C)C)cc1 [compound 162] ([Ahx][Pen]NTWQ[Pen]Y(Me)[2Nal][αMeL]DNN-NH2; disulfide 2-7; lactam N-11)			33.5 nM	
COc1ccc(C[C@@H]2NC(=O)[C@H]3NC(=O)[C@H](CCC(N)=O)NC(=O)[C@H](Cc4c[nH]c5ccccc45)NC(=O)[C@H]([C@@H](C)O)NC(=O)[C@H](CC(N)=O)NC(=O)[C@@H](NC(=O)CCCCCNC(=O)CC[C@@H](C(=O)N[C@@H](CC(N)=O)C(=O)NCC(N)=O)NC(=O)C4(CCOCC4)NC(=O)[C@H](Cc4ccc5ccccc5c4)NC2=O)C(C)(C)SSC3(C)C)cc1 [compound 161] ([Ahx][Pen]NTWQ[Pen]Y(Me)[2Nal][Thp]ENG-NH2; disulfide 2-7 (inferred); lactam N-11 (inferred))			76.6 nM	
